target: T1, GST tagged IRAK4 (Homo sapiens, UniProt Q9NWZ3); test: IRAK4 kinase activity assay, IMAP fluorescence polarization, phosphorylation of fluorescently labeled peptide; assay type: biochemical; conditions: 0.5 nM GST tagged IRAK4, 100 nM peptide substrate, 100 μM ATP, 30 minutes at 25° C.
T1 construct: purchased SignalChem
T1 sequence (Q9NWZ3 1-460): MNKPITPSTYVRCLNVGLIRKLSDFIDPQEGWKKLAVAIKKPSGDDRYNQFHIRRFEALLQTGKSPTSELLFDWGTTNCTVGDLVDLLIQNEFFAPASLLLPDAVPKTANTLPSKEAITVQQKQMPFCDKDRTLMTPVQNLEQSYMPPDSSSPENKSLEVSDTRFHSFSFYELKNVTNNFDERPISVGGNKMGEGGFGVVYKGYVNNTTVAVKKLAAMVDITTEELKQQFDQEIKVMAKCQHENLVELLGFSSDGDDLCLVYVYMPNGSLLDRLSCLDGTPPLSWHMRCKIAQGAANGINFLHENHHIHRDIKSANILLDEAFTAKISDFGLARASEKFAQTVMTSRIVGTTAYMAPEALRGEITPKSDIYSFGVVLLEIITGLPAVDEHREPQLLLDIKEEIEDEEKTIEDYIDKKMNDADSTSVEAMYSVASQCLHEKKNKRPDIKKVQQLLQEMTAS
Method: The kinase activity of IRAK4 is measured by its ability to phosphorylate a fluorescently labeled synthetic peptide in the presence of ATP. The assay format is based on the Immobilized Metal Ion Affinity-Based Fluorescence Polarization (IMAP) platform developed by Molecular Devices. Briefly, reaction mixture (20 μL) contains the assay buffer (20 mM Tris.Cl, pH 7.2, 1 mM MgCl2, 1 mM DTT, and 0.02% Tween 20), 0.5 nM GST tagged IRAK4 (SignalChem), 100 nM peptide substrate and 100 μM ATP. The amino acid sequence of the peptide substrate is 5FAM-RKRQGSVRRRVH-COOH (Cat #: RP7030, Molecular Devices). The reaction is initiated by adding substrates ATP and RP7030, and terminated by adding Stop solution (60 μL) after 30 minutes of incubation at 25° C. The Stop solution is prepared with IMAP Progressive Reagent A/B and Binding reagent according to vender's instruction. The extent of phosphorylation of the peptide is measured by changes in Fluorescence Polarization (FP) resulting from binding of phosphate group on the peptide with immobilized metal coordination complexes on the nanoparticles included in the Stop solution. Errors in the calculated IRAK4 IC50 values range from 4-12% from duplicate experiments.

IC50 [µM] | SMILES
3 to 10 | NC(=O)c1cc2ccnc3c2cc1OCCOCCN1C(=O)CCC1CO3 (centres unmarked) [Compound IX, 4^5-oxo-2,7,10-trioxa-1(1,7)-isoquinolina-4(2,1)-pyrrolidinacyclodecaphane-1^6-carboxamide]
0.5 to 3 | COc1cc2c(OC[C@@H]3CCC(=O)N3)nccc2cc1C(N)=S [Compound XI, (S)-7-methoxy-1-((5-oxopyrrolidin-2-yl)methoxy)isoquinoline-6-carbothioamide]
0.5 to 3 | NC(=O)c1cc2ccnc3c2cc1OCCOCC(=O)N1CC(CO3)C1 [Compound XIV, 5-oxo-2,7,10-trioxa-1(1,7)-isoquinolina-4(3,1)-azetidinacyclodecaphane-16-carboxamide]
< 0.5 | COc1cc2c(N3CCC[C@H](N)C3)nccc2cc1C(N)=O [Compound XX, (S)-1-(3-aminopiperidin-1-yl)-7-methoxyisoquinoline-6-carboxamide]
0.5 to 3 | COc1cc2c(N3CCC[C@H](O)C3)nccc2cc1C(N)=O [Compound XXI, (S)-1-(3-hydroxypiperidin-1-yl)-7-methoxyisoquinoline-6-carboxamide]
< 0.5 | CC#Cc1cnc(NC[C@@H]2CCC(=O)N2)c2cc(OC)c(C(N)=O)cc12 [Compound XXII, (S)-7-methoxy-1-(((5-oxopyrrolidin-2-yl)methyl)amino)-4-(prop-1-yn-1-yl) isoquinoline-6-carboxamide]
0.5 to 3 | CCC[C@@H]1CC(=O)N2COCCOc3cc4c(nccc4cc3C(N)=O)OC[C@H]12 [Compound XXIV, (4^2S,4^3R)-4^5-oxo-4^3-propyl-2,6,9-trioxa-1 (1,7)-isoquinolina-4 (2,1)-pyrrolidinacyclononaphane-1^6-carboxamide]
0.5 to 3 | COc1cc2c(N[C@@H]3CCCNC3)nccc2cc1C(N)=O [Compound XXIX, (R)-7-methoxy-1-(piperidin-3-ylamino) isoquinoline-6-carboxamide]
< 0.5 | C[C@@H]1CC(=O)N2COCCOc3cc4c(nccc4cc3C(N)=O)OC[C@H]12 [Compound XXV, (4^2S, 4^3R)-4^3-methyl-4^5-oxo-2,6,9-trioxa-1 (1,7)-isoquinolina-4 (2,1)-pyrrolidinacyclononaphane-1^6-carboxamide]
0.5 to 3 | COc1cc2c(N3CCC(C)(CN)CC3)nccc2cc1C(N)=O [Compound XXVI, 1-(4-(aminomethyl)-4-methylpiperidin-1-yl)-7-methoxyisoquinoline-6-carboxamide]
0.5 to 3 | COc1cc2c(N3CCC(N)CC3)nccc2cc1C(N)=O [Compound XXVII, 1-(4-aminopiperidin-1-yl)-7-methoxyisoquinoline-6-carboxamide]
< 0.5 | CC[C@@H]1CC(=O)N[C@@H]1CNc1nccc2cc(C(N)=O)c(OC)cc12 [Compound XXVIII, 1-((((2S, 3R)-3-ethyl-5-oxopyrrolidin-2-yl)methyl)amino)-7-methoxyisoquinoline-6-carboxamide]
3 to 10 | COc1cc2c(N[C@@H]3CCCN(C(=O)CC#N)C3)nccc2cc1C(N)=O [Compound XXX, (R)-1-((1-(2-cyanoacetyl)piperidin-3-yl)amino)-7-methoxyisoquinoline-6-carboxamide]
3 to 10 | COc1cc2c(S[C@@H]3CCCN(C(=O)CC#N)C3)nccc2cc1C(N)=O [Compound XXXI, (R)-1-((1-(2-cyanoacetyl)piperidin-3-yl)thio)-7-methoxyisoquinoline-6-carboxamide]
0.5 to 3 | COc1cc2c(N[C@@H]3CCNC3)nccc2cc1C(N)=O [Compound XXXII, (R)-7-methoxy-1-(pyrrolidin-3-ylamino)isoquinoline-6-carboxamide]
3 to 10 | COc1cc2c(OCC3CCC(=O)N3)nccc2cc1C(=O)NO (centres unmarked) [IV, N-hydroxy-7-methoxy-1-((5-oxopyrrolidin-2-yl)methoxy) isoquinoline-6-carboxamide]
0.5 to 3 | COc1cc2c(NCC3CCC(=O)N3)nccc2cc1C(N)=O (centres unmarked) [VII, 7-methoxy-1-(((5-oxopyrrolidin-2-yl)methyl)amino) isoquinoline-6-carboxamide]
0.5 to 3 | COc1cc2c(OC[C@@H]3CCC(=O)N3)nccc2cc1C(=O)S [XIII, (S)-7-methoxy-1-((5-oxopyrrolidin-2-yl)methoxy) isoquinoline-6-carbothioic S-acid]
0.5 to 3 | CC[C@@H]1CC(=O)N2COCCOc3cc4c(nccc4cc3C(N)=O)OC[C@H]12 [XIX, (4^2S, 4^3R)-4^3-ethyl-4^5-oxo-2,6,9-trioxa-1 (1,7)-isoquinolina-4 (2,1)-pyrrolidinacyclononaphane-1^6-carboxamide]
0.5 to 3 | NC(=O)c1cc2ccnc3c2cc1OCCOCN1C(=O)OCC1CO3 (centres unmarked) [XVII, 1^2-oxo-3,5,8-trioxa-1(4,3)-oxazolidina-4(1,7)-isoquinolinacyclononaphane-4^6-carboxamide]
< 0.5 | NC(=O)c1cc2ccnc3c2cc1OCCOCN1C(=O)CC[C@H]1CO3 [XVIII, (S)-4^5-oxo-2,6,9-trioxa-1(1,7)-isoquinolina-4(2,1)-pyrrolidinacyclononaphane-1^6-carboxamide]
0.5 to 3 | COc1cc2c(ccn2[C@H]2CC[C@H](N)C2)cc1C(N)=O [XXIII, 1-((1S, 3S) 3-aminocyclopentyl)-6-methoxy-1H-indole-5-carboxamide]
< 0.5 | CC#Cc1cnc(N2CCC[C@H](N)C2)c2cc(OC)c(C(N)=O)cc12 [XXXIV, (S)-1-(3-aminopiperidin-1-yl)-7-methoxy-4-(prop-1-yn-1-yl)soquinoline-6-carboxamide]
0.5 to 3 | COc1cc2c(N3CCC[C@H](N)C3)ncc(Br)c2cc1C(N)=O [XXXV, (S)-1-(3-aminopiperidin-1-yl)-4-bromo-7-methoxyisoquinoline-6-carboxamide]
0.5 to 3 | COc1cc2c(N3CCC[C@H](N)C3)ncc(C#N)c2cc1C(N)=O [XXXVI, (S)-1-(3-aminopiperidin-1-yl)-4-cyano-7-methoxyisoquinoline-6-carboxamide]

SMILES | IC50 [µM]
COc1cc2c(OCC3CCC(=O)N3)nccc2cc1OC(N)=O (centres unmarked) [II, 7-methoxy-1-((5-oxopyrrolidin-2-yl)methoxy)isoquinolin-6-yl carbamate] | 3 to 10

Source: patent publication US20200385370A1 (SYNBLIA THERAPEUTICS, INC., priority 2017, published 2020)
